Results taken from patent US11090290B2, “Clonidine and/or clonidine derivatives for use in the prevention of skin injury resulting from radiotherapy” (MONOPAR THERAPEUTICS INC., priority 2015, dated 2021).

Legend:
[1] = system: skin injury following radiotherapy in patients with head and neck cancer; settings: mucoadhesive buccal tablet 50 μg once daily, from 1 to 3 days before radiotherapy until its end, up to 8 weeks; 50 to 70 Gray plus platinum-based chemotherapy; placebo group 38.7%
Procedure: These patients received, within 15 weeks after curative surgery, a cumulative radiation dose of radiation ranging from 50 to 70 Gray in oral cavity, based on a daily dosing between 1.8 and 2.2 Gy, combined with platinum-based chemotherapy, based on a weekly or tri-weekly cycle. Clonidine was administered in the form of a mucoadhesive tablet that was applied into the mouth, on the upper gum, for about 30 seconds, after which it remained in place for several hours. The treatment with clonidine hydrochloride started from 1 to 3 days before radiotherapy until the end of radiotherapy, for up to 8 weeks. Patients were evaluated twice a week during the radiotherapy period, then one month after stop of radiotherapy.

[2] = system: radiation skin injury; settings: Journal of Clinical Oncology, Vol. 29, No 20, 2011; even worsened skin adverse reactions; cited from earlier work

| Molecule | patients showing skin injury after treatment [1] | effect on radiation skin injury compared to a placebo [2] |
| --- | --- | --- |
| Cl.Clc1cccc(Cl)c1NC1=NCCN1 [clonidine hydrochloride] | 25.5% | – |
| palifermin | – | not to improve radiation skin injury compared to a placebo |
